Literature values as cited in patent publication US20060264381A1, “Methods of treating obsessive compulsive disorder” (priority 2005, published 2006).

Columns and labels:
[1] = system: Gp1 mGluR5 on cultured hippocampal neurons
[2] = system: cultured cortical neurons; details: cultures prepared from Fmr1 knockout (KO) mice lacking FMRP
[3] = system: synaptosomes prepared from the cortex of Fmr1 KO mice
[4] = system: Drosophila mGluR, DmGluRA; details: flies lacking dfmr1 raised with food containing drug
[5] = biological target: T1, mGluR5 (Mus musculus, UniProt Q3UVX5); details: slices from the Fmr1 KO mouse
T1 construct: from tissue; host or cells: brain slices from Fmr1 knockout mouse (hippocampal area CA3 by context)
T1 sequence (Q3UVX5 19-1203): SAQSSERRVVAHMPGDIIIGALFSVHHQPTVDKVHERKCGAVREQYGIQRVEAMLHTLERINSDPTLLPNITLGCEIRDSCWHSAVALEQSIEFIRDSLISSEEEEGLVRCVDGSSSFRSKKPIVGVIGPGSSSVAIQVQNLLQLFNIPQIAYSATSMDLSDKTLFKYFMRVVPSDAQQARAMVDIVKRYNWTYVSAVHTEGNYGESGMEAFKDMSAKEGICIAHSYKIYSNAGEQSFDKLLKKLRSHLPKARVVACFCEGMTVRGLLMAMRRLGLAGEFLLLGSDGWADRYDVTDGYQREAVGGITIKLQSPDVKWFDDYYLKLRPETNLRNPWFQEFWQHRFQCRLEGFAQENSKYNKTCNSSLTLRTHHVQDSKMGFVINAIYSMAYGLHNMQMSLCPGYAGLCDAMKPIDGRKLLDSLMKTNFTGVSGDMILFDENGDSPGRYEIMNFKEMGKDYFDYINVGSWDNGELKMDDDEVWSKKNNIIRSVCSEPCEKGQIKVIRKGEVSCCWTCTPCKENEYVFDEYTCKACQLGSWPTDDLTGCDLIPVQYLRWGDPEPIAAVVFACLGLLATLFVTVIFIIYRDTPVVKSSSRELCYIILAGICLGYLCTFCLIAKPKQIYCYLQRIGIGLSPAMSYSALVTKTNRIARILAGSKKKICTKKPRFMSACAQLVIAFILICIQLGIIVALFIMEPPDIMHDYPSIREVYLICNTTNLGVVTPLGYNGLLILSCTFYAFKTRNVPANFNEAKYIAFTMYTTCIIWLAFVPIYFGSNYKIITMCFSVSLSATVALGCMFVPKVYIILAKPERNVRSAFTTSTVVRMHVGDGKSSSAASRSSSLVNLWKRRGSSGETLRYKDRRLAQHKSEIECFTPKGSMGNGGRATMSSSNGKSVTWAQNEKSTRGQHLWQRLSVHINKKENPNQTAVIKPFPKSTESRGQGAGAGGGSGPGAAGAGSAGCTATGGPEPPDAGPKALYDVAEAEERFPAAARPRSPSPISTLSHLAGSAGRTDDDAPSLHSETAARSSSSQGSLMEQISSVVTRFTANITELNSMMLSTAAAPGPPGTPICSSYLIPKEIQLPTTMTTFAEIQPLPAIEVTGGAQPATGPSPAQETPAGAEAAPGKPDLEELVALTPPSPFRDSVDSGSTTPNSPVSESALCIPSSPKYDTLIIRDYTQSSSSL

SMILES	delivery of FMRP to dendrites ([1]; cultured hippocampal neurons)	loss of AMPA receptors from synapses ([1]; cultured hippocampal neurons)	proportion of long, thin dendritic spines ([1]; prolonged treatment of hippocampal neurons)	PSD-95 levels [2]	polyribosome assembly [3]	rescue of phenotypes in mutant flies (altered courtship behavior, decreased memory in conditioned courtship assay, mushroom body structure) [4]	ictal-like activity emerging spontaneously in slices [5]
N[C@@H](C(=O)O)c1cc(O)cc(O)c1 (racemic) [DHPG, (R,S)-3,5-dihydroxyphenylglycine]	triggers the delivery of FMRP to dendrites	stimulates the loss of AMPA receptors from synapses	increased the proportion of long, thin dendritic spines	fails to increase PSD-95 levels	fails to stimulate polyribosome assembly	–	–
Cc1cccc(C#Cc2ccccc2)n1 [MPEP, 2-methyl-6-(phenylethynyl)-pyridine]	–	–	–	–	–	rescued	reversed
